Results on six compounds are retold here after patent US20250155433A1, “FLUORESCENT SENSORS FOR DETECTION OF SIDEROPHORES AND OTHER MOLECULES PRODUCED BY BACTERIAL PATHOGENS” (Kansas State University Research Foundation, priority 2021, published 2025).

Where a SMILES comes first, the peptide text is derived from it. [ ]: non-standard residue; d: D form. Orn(N5-OH,N5-Ac) = CC(=O)N(O)CCC[C@H](N)C(=O)O

One experiment addresses T1, EcoIutA (Escherichia coli, UniProt P14542, T573C).
T1 construct: expressed in transfected cells; host or cells: E. coli OKN3/OKN13/OKN359/OKN1359 carrying a pITS23 derivative
The experiment can be described thus: Fluorescence quenching binding to EcoIutA-FM sensor. As to conditions: for Binding by IutA: other ferric hydroxamates. The protocol:
(§1) Fluorescence modifications. For modifications with maleimide fluorophores, we inoculated E. coli strains OKN3, OKN13, OKN359 or OKN1359, harboring plasmids that encoded a Cys mutant LGP, from frozen stocks into LB, grew them overnight and sub-cultured at 1% into iron-deficient MOPS minimal media, with shaking (200 rpm) at 37° C. for 10-12 h, until late exponential phase. After collecting the cells by centrifugation at 7500×g for 15 min, and washing with 50 mM NaHPO4, pH 6.7, we labeled the Cys-mutant LGP with 5 μM FM in 50 mM NaHPO4, pH 6.7 for 15 min at 37° C. FM. We terminated the labeling reactions with 100 μM β-mercaptoethanol. After collecting the fluoresceinated cells by centrifugation at 7500×g for 15 min, and washing with 50 mM NaHPO4, pH 6.7, we re-suspended them in PBS plus 0.2% glucose. We either immediately used the labeled cells in spectroscopic experiments, or rested them on ice (up to 24 h), or added glycerol to 15% and stored them (indefinitely) as 1 mL aliquots at −70° C. In the latter case, after thawing the labeled cells we pelleted them by centrifugation in a microfuge, washed them once with and re-suspended them in PBS containing 0.2% glucose. Lastly, for evaluation of protein expression or the extent of FM-labeling we solubilized aliquots of the cell suspensions with sample buffer, and subjected them to SDS-PAGE. After electrophoresis, we first visualized the fluorescence labeling on a Typhoon 8600 Biomolecular Scanner (GE/Amersham), and then stained the gels with Coomassie blue R (153).
(§2) Fluorescence spectroscopic binding determinations. We observed fluorophore-labeled cells in an SLM AMINCO 8100 fluorescence spectrometer, upgraded with an OLIS operating system and software (OLIS SpectralWorks, OLIS Inc., Bogart, GA), to control its shutters, polarizers and data collection. We also utilized an OLIS Clarity fluorescence spectrometer for fluorescence assays. For binding determinations we deposited 2.5×10^7 labeled cells in a quartz cuvette (final volume, 2 mL) with stirring at 37° C., measured the initial fluorescence (F0), and then added increasing concentrations of an iron complex while monitoring the quenching of fluorescence emissions (F) at 520 nm. We performed each measurement in triplicate and calculated the mean value of F/F0 at each ligand concentration. We plotted 1−F/F0 vs [ligand] and analyzed the data by the 1-site binding model of Grafit 6.0.12 (Erithacus Ltd. West Sussex, UK), that fits data to a single site saturation curve, where the amount of ligand bound is plotted as a function of the amount free: […]
(§3) Table 1 lists KD values from analysis of fluorescence quenching with ferric or apo (parenthetic values) siderophores or porphyrins. […]

In the next experiment the target is EcoFhuA (Escherichia coli, UniProt P06971). Briefly: Fluorescence quenching binding to EcoFhuA-FM sensor. As to conditions: read-out: Affinity (KD) of sensor EcoFhuA; ferric complexes; Cys residue D396C, FM-labeled; NB = no binding. The procedure: as §1, §2, §3
Experiment [1] addresses T2, HsaSCN (human siderocalin) (Homo sapiens, UniProt P80188, Q148C).
T2 construct: adds a 6H-tag at either the N- or C-termini of the mature proteins; 6-His (N); made in house; host or cells: E. coli BL21 (pET28), IPTG-induced; purified on Talon Superflow
The experiment can be described thus: Fluorescence quenching binding to purified HsaSCN-FM sensor. As to conditions: read-out: KD, HsaSCN-FM.

The next experiment relates to CRE/ESKAPE pathogens. Briefly: Decoy sensor measurements of metal complex uptake by bacteria. Format: cell-based. As to conditions: decoy sensors in TonB-deficient E. coli, 37° C., strains grown in iron-deficient MOPS. The source says: Fluorescence spectroscopic uptake measurements. We employed FD sensors to monitor TonB-dependent uptake of various siderophores by bacterial pathogens. In the fluorescence spectroscopic uptake studies E. coli OKN13 (ΔtonB, ΔfepA) or OKN1359 (ΔtonB, Δfiu, ΔfepA, Δcir) were host strains for pITS23 derivatives carrying single Cys mutants of an LGP of interest. The FLGP were decoy sensors that monitored ferric siderophore uptake by test strains. For each assay we used 10^7 sensor cells (e.g., OKN13/pFepA-FM (53)) in a 2 mL quartz cuvette containing PBS+0.2% glucose at 37° C. After recording fluorescence intensity for 100 seconds, we added an iron complex (e.g., FeEnt) at a final concentration of ˜10 nM. After incubating the sample for 100 seconds, during which time fluorescence was quenched (e.g., ˜60% quenching for EcoFepA_A698C-FM), we added 0.5-2×10^7 cells of the test strain (E. coli MG1655, K. pneumoniae Kp52.145, A. baumannii 17978, P. aeruginosa PA01, E. cloacae) and monitored the time-course of fluorescence emissions at 520 nm for 15-40 minutes, with stirring.

For a further experiment, the target named is AbaBauA (Acinetobacter baumannii, UniProt Q76HJ9, S407C). The experiment can be described thus: Fluorescence quenching binding to AbaBauA-FM sensor. As to conditions: read-out: Affinity (KD) of sensor AbaBauA; ferric complexes; Cys residue S385C, FM-labeled; NB = no binding. The procedure:
Fluorescence modifications. For modifications with maleimide fluorophores, we inoculated E. coli strains OKN3, OKN13, OKN359 or OKN1359, harboring plasmids that encoded a Cys mutant LGP, from frozen stocks into LB, grew them overnight and sub-cultured at 1% into iron-deficient MOPS minimal media, with shaking (200 rpm) at 37° C. for 10-12 h, until late exponential phase. After collecting the cells by centrifugation at 7500×g for 15 min, and washing with 50 mM NaHPO4, pH 6.7, we labeled the Cys-mutant LGP with 5 μM FM in 50 mM NaHPO4, pH 6.7 for 15 min at 37° C. FM. We terminated the labeling reactions with 100 μM β-mercaptoethanol. […] After electrophoresis, we first visualized the fluorescence labeling on a Typhoon 8600 Biomolecular Scanner (GE/Amersham), and then stained the gels with Coomassie blue R (153).
Fluorescence spectroscopic binding determinations. We observed fluorophore-labeled cells in an SLM AMINCO 8100 fluorescence spectrometer, upgraded with an OLIS operating system and software (OLIS SpectralWorks, OLIS Inc., Bogart, GA), to control its shutters, polarizers and data collection. We also utilized an OLIS Clarity fluorescence spectrometer for fluorescence assays. […] We performed each measurement in triplicate and calculated the mean value of F/F0 at each ligand concentration. […]

The target of a further experiment is AbaPiuA (Acinetobacter baumannii, UniProt D0CAH3, S724C). Briefly: Fluorescence quenching binding to AbaPiuA-FM sensor. The protocol:
as §1, with “In the latter case, after thawing the labeled cells we pelleted them by centrifugation in a microfuge, washed them once with and re-suspended them in PBS containing 0.2% glucose. Lastly, for evaluation of protein expression or the extent of FM-labeling we solubilized aliquots of the cell suspensions with sample buffer, and subjected them to SDS-PAGE.” left out
as §2, with “concentration.” for “concentration. We plotted 1−F/F0 vs [ligand] and analyzed the data by the 1-site binding model of Grafit 6.0.12 (Erithacus Ltd. West Sussex, UK), that fits data to a single site saturation curve, where the amount of ligand bound is plotted as a function of the amount free:”
as §3

The Kd is the equilibrium constant for the complex coming apart. As for `CC(=O)N(O)CCCC[C@H](NC(=O)CC(O)(CC(=O)N[C@@H](CCCCN(O)C(C)=O)C(=O)O)C(=O)O)C(=O)O` [Abn, aerobactin], at EcoIutA, the dissociation constant Kd was 1400 nM.
In the case of `CC(=O)N(O)CCC[C@@H]1NC(=O)CNC(=O)CNC(=O)CNC(=O)[C@H](CCCN(O)C(C)=O)NC(=O)[C@H](CCCN(O)C(C)=O)NC1=O.[Fe+3]` [Fc, ferrichrome] (cyclo(GGG[Orn(N5-OH,N5-Ac)][Orn(N5-OH,N5-Ac)][Orn(N5-OH,N5-Ac)])), the dissociation constant (Kd) at EcoFhuA was 3 nM; in experiment [1] it was 110 nM. Besides, the “Binding by IutA” value at EcoIutA is “did not measurably bind”.
On to `C/C(=C\C(=O)N(O)CCC[C@@H]1NC(=O)CNC(=O)[C@H](CO)NC(=O)[C@H](CO)NC(=O)[C@H](CCCN(O)C(=O)/C=C(\C)CC(=O)O)NC(=O)[C@H](CCCN(O)C(=O)/C=C(\C)CC(=O)O)NC1=O)CC(=O)O.[Fe+3]` [FcA], for which the dissociation constant (Kd) at EcoFhuA was determined as 60 nM. Moreover, at EcoIutA, the “Binding by IutA” value is listed as “did not measurably bind”.
Consider `CC(=O)N([O-])CCCC[C@H](NC(=O)CC(O)(CC(=O)N[C@@H](CCCCN([O-])C(C)=O)C(=O)O)C(=O)[O-])C(=O)O.[Fe+3]` [FeAbn, ferric aerobactin], for which the “TonB-dependent uptake by test strains” value in the experiment on CRE/ESKAPE pathogens was “uptake of FeAbn by all the strains except A. baumannii”.
For the compound `O=C([C@@H]1CSC(c2cccc(O)c2O)=N1)N(O)CCc1c[nH]cn1.[Fe+3]` [FeAgn], the dissociation constant (Kd) stood at 1100 nM at AbaBauA and 160 nM in experiment [1].
Consider `O=C(N[C@@H](CO)C(=O)O)c1cccc(O)c1O.[Fe+3]` [FeDHBS], for which the “Binding by AbaPiuA” value on AbaPiuA is given as “did not bind”.
